Values quoted from earlier work, collected in US11414692B2, “Method and device for characterizing the inhibitory capacity of a molecule on a microorganism” (BIOMERIEUX, priority 2014, dated 2022).
≈ marks a conversion by molar mass, not a printed value.

Test system: E. coli ATCC 25922
Settings: manual technique, incubation time 18 to 24 h

Compound | MIC concentration recognized by the French government, or "regulatory" MIC [mg/L]
O=C(N[C@H](CO)[C@H](O)c1ccc([N+](=O)[O-])cc1)C(Cl)Cl [chloramphenicol] | 4 (≈ 12.4 µM)
CCn1cc(C(=O)O)c(=O)c2ccc(C)nc21 [nalidixic acid] | 2 (≈ 8.61 µM)
gentamicin | 0.5
